Reference: patent US11504439B2, “Radioactive compound for diagnosis of malignant melanoma and use thereof” (INDUSTRY FOUNDATION OF CHONNAM NATIONAL UNIVERSITY, priority 2017, dated 2022)
Blank lines part the entries; values can stand above or below the molecule they belong to.

Legend:
[1] = In vitro stability test in human serum; format: in vitro ADME; conditions: 1.0 ml human serum, 37° C., 2 hours, ITLC-sg / radio TLC
Method: For in vitro stability test, 0.74 MBq/100 μl of [^18F] DMFB was dissolved in 1.0 ml human serum and then evaluated at 37° C. for 2 hours. The structural stability was measured by ITLC-sg. ITLC-sg (1×10 cm) was developed using MC:MeOH=10:1. The results were confirmed by radio TLC.

[2] = Melanin binding assay
Method: 0.74 MBq of [^18F] DMFB was reacted with 2 mg of melanin and 10 ml of distilled water for 10, 30, 60, and 120 minutes at 37° C. with stirring. Then, centrifugation was performed at 16,800 rpm for 10 minutes, and […] of the supernatant was measured with a gamma counter. Percentages (%) of [^18F]DMFB bound to melanin were calculated based on the mixture of [^18F]DMFB and distilled water alone without melanin.

[3] = system: B16F10 melanoma cells; experiment: Melanoma cell uptake ratio experiment; format: cell-based, mouse
Method: B16F10 cell line, a mouse malignant melanoma cell line, was cultured in 5% CO2 in DMEM medium. Twenty-four hours prior to the experiment, cells were plated at 5×10^5 cells/well in 12-well plates and treated with 0.275 mM L-tyrosine-supplemented medium and non-supplemented medium, respectively. Then the cells were treated with 0.74 MBq of [18F]DMFB and incubated at 37° C. for 10, 30, and 60 min, respectively. After washing with PBS twice, the cells were treated with trypsin and the degree of [^18F]DMFB in the cell culture medium and cells in each time group was measured with a gamma counter, respectively. Three experiments were performed for each time group, and the results were expressed as percentage of the amount absorbed by cells versus the amount treated into the plate.

[4] = system: B16F10 cell line tumor; experiment: Body distribution in small animal model of tumor transplantation; format: in vivo, nude mice
Method: (§1) In order to confirm the in vivo distribution of [^18F]DMFB, experiments were performed on nude mice whose tumor was grown to 100 to 150 mm^3 after about 10 days of injection of the B16F10 cell line into the right shoulder region. [^18F]DMFB was injected into the tail vein of the tumor-bearing mice at a dose of 7.4 MBq and sacrificed at 10, 30, 60, and 120 minutes, respectively to excise tumor tissue, blood and organs, and distribution of the radioactive compound was confirmed. The excised organs were measured by the gamma counter in each of the organs including blood, heart, lung, liver, spleen, stomach, intestine, kidney, pancreas, normal muscle, bone, brain, skin and eyes. The results were corrected by organ weight and expressed as a percentage of injections per gram of tissue (% ID/g).
as §1, with “In addition, in” for “In”, “[^18F]DMPY2 prepared in the example 3-2,” for “[^18F]DMFB,”, “tumors were” for “tumor was”, “[^18F]DMPY2” for “[^18F]DMFB”, “30,” for “30, 60,”, “60” for “120”

[5] = system: B16F10 cell line tumor; experiment: Micro PET imaging using xenograft tumor mouse model; format: in vivo, nude mouse; conditions: for signals in other organs (micro PET): 1 hour / 60 min after injection
Method: To confirm the in vivo dynamics of [^18F]DMFB, B16F10 cell line was injected into the right shoulder region, and about 10 days later, micro PET was performed using a nude mouse bearing tumor ranging in size of 100-150 mm^3. The nude mice were anesthetized with Isoflurane inhalation and then injected with 7.4 MBq of [^18F]DMFB into the tail vein. Static micro PET images were obtained at 10, 30, and 60 minutes after injection of the radioactive compound. Tumor uptake was determined and the images were reconstructed using 3D-ordered subset expectation maximization (3D-OSEM).
In addition, the in vivo dynamics of [^18F] DMPY2 was also analyzed by the same method as described above except that micro PET images were taken at 30 and 60 minutes after injection.

[6] = system: B16F10 metastatic foci (lung, liver, lymph node); experiment: In vivo distribution and PET imaging in lung/liver metastatic model mice; parameters: species or system C57BL/6 mice; conditions: 60 minutes from administering, lung metastasis model animal
Method: In order to examine the in vivo distribution and dynamics of [^18F]DMFB in lung/liver metastatic animal model, the present inventors divided C57BL/6 mice into two groups, one were injected with 1×10^5 cells of B16F10 cell line into the tail vein and the other were not injected with the tumor cells. After 14 days from the tumor cell inoculation, 7.4 MBq of [^18F]DMFB was injected into lung metastatic model mice and normal mice via tail vein, respectively and visualized at 60 min. Likewise, liver metastatic mice prepared by injecting 1×10^5 cells of B16F10 cell line into the tale vein were injected with 7.4 MBq of [^18F]DMFB into the tail vein. After 60 minutes of the administration, micro PET image was obtained. This liver metastatic model mice were produced among mice survived after a certain time after the induction of lung metastasis. Mice survived after the induction lung metastasis have metastasized to the lymph nodes and other organs after time elapse. […] After obtaining the images, the metastatic model mice and normal mice were sacrificed and lung and liver were excised and uptake ratio of the excised lung and liver were measured by a gamma counter. The results were corrected by organ weight and expressed as a percentage of injections per gram of tissue (% ID/g). […]

[7] = system: B16F10 xenograft tumor; experiment: Comparison of [^18F]DMPY2 and [^18F]FDG, micro PET in melanoma xenograft model mice; format: in vivo; conditions: 1 hour after injection, 7.4 MBq
Method: (§2) The present inventors compared the imaging capabilities for melanoma and lung metastasis of the melanoma of [^18F]DMPY2 according to one embodiment of the present invention with the [^18F]FDG which has been used as a PET contrast agent for diagnosing cancer previously.
Particularly, melanoma xenograft model mice were prepared in the same manner as in Experimental Example 5, and then 7.4 MBq of [^18F]DMPY2 and [^18F]FDG were injected respectively, and systemic micro PET images were obtained at 1 hour after the injection.

[8] = system: lung metastasis of melanoma; experiment: Comparison of [^18F]DMPY2 and [^18F]FDG, micro PET in lung metastasis model mice; format: in vivo; conditions: 1 hour after injection, 7.4 MBq
Method: as §2
In addition, after lung metastasis model mice were prepared in the same manner as in Experimental Example 6, 7.4 MBq of [^18F]DMPY2 and [^18F]FDG were injected, respectively, and systemic micro PET images were obtained at 1 hour after the injection.

[9] = system: melanoma; conditions: cited from earlier work; for detection rate for melanoma: melanoma patients
[10] = with time after injection (10, 30, 60 minutes)

- structural stability in human serum [1]: very stable even after 2 hours
- binding rate to melanin ([2]; 2 mg melanin, 37° C., 10 to 120 minutes): ≥ 85%
- change of melanin binding rate over time ([2]; after 120 minutes): did not significantly decrease
- radioactivity in internal organs (blood, heart, liver, lung, kidney) ([4]; 10 minutes after injection, 7.4 MBq tail vein): strong radioactivity was detected
- absorption ratio in stomach, liver, and kidney ([4]; 1 hour after injection): relatively low
- absorption ratio in tumor tissues ([4]; 1 hour after injection): highest
- radioactivity in the tumor tissue ([4]; elapsed time of 2 hours): maintained
- radioactivity in the visceral organs ([4]; elapsed time of 2 hours): hardly detected
SMILES: CN(C)CCNC(=O)c1ccc([18F])cc1 [[^18F]DMFB, N-(2-(dimethylamino)ethyl)-4-[^18F]fluorobenzamide]
- uptake in B16F10 melanoma cells ([3]; L-tyrosine not treated): hardly absorbed
- uptake in B16F10 melanoma cells ([3]; medium supplemented with tyrosine (0.275 mM L-tyrosine), 10 to 60 minutes): significantly increased
- signals in other organs (micro PET) [5]: maintaining signal in other organs
- radiation in the tumor tissue (micro PET) [5, 10]: maintained
- radioactivity in the liver (micro PET) [5, 10]: decreased with time
- detection of lung metastatic cancer (micro PET) [6]: possible to detect a lung metastatic cancer

- absorption ratio in tumor tissues ([4]; 1 hour after injection): accumulated most in tumor tissue
- signal in other organs such as kidney ([4]; over time to 1 hour after injection): rapidly decreased
SMILES: CN(C)CCNC(=O)c1ccc([18F])cn1 [[^18F]DMPY2]
- signals in other organs (micro PET) [5]: very weak
- signal in melanoma tumor tissue (micro PET) ([5]; 1 hour after injection): clearly observed
- signal in tumor tissue (micro PET) [7]: clear signal only in tumor tissue
- signal to noise ratio (micro PET) [7]: very high
- signal in the metastatic lung (micro PET) [8]: very strong signal
- signals / noise in other organs (micro PET) [8]: little or no noise in other organs except bladder

SMILES: O=C[C@H]([18F])[C@@H](O)[C@H](O)[C@H](O)CO [[^18F]FDG, F-18-fluoro-deoxyglucose, reference compound]
- background noise (micro PET) [7]: background noise was widespread throughout the whole body
- signal in tumor tissue (micro PET) [7]: showed a signal in the tumor tissue
- signals / noise in other organs (micro PET) [8]: stronger than the lungs
- suitability for diagnosing lung metastasis of melanoma [8]: unsuitable
- identification of metastatic foci with less than 1 cm in diameter ([9]; lung, liver, and brain): failed to identify

SMILES: [11CH3]SCC[C@H](N)C(=O)O [^11C-methionine, L-[methyl-^11C]methionien]
- detection rate for melanoma [9]: extremely low

SMILES: N[C@@H](Cc1cc(O)c(O)cc1[18F])C(=O)O [^18F-DOPA, 6-^18F-Fluoro-L-dihydroxyphenylalanine]
- detection rate for melanoma [9]: extremely low

SMILES: Cc1cn([C@H]2C[C@H]([18F])[C@@H](CO)O2)c(=O)[nH]c1=O [^18F-FLT, 3′-^18F-fluoro-3′-deoxy-L-thymidine]
- detection rate for melanoma [9]: extremely low
